Our source for the IC50 values is patent publication US20250034110A1, “LPAR1 ANTAGONISTS AND USES THEREOF” (Pipeline Therapeutics, Inc., priority 2021, published 2025).

In the assay the target is human LPAR1 (Homo sapiens, UniProt Q92633). The assay is described as follows: In vitro functional assay of lysophosphatidic acid receptor 1 activity (calcium flux). The class given is cell-based. (Calcium flux is commonly read through the fluorescence of an indicator in the cells.)
[1] abbreviates: B103 cells stably expressing human LPAR1, calcium flux (Fluo-4 NW) after lysophosphatidic acid (18:1) at EC80, 100 pM to 10 μM, read-out: LPAR1 IC50.

Structures are written as SMILES. Read-outs that look alike come from different tables or passages of the source.

By IC50 is commonly meant the concentration that inhibits the measured activity by half.

Chain of human LPAR1 (Q92633 whole entry): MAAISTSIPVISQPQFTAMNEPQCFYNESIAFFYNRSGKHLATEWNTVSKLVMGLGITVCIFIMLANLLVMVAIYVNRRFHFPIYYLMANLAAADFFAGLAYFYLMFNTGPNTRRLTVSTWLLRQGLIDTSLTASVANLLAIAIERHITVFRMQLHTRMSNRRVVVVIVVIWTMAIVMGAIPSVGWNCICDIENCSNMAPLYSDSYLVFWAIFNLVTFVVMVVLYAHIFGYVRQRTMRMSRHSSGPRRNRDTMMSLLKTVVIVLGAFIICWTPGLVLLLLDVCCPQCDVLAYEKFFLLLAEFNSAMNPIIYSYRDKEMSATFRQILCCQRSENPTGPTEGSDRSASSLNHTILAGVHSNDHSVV

As to `COc1ccc(NC(=O)N(c2ccccc2C(C)(C)F)[C@H]2CC[C@H](C(=O)O)CC2)c(OC(F)F)n1` [Example 278, (1r,4r)-4-(3-(2-(difluoromethoxy)-6-methoxypyridin-3-yl)-1-(2-(2-fluoropropan-2-yl)phenyl)ureido)cyclohexane-1-carboxylic acid], the IC50 under setting [1] is 10 to 100 nM. On the same count and under the same terms, as for `Cc1ccc(NC(=O)N(CC2COC2)c2ccccc2C(C)C)c(OC(F)F)n1` [Example 15, 3-(2-(difluoromethoxy)-6-methylpyridin-3-yl)-1-(2-isopropylphenyl)-1-(oxetan-3-ylmethyl)urea], the figure is 10 to 100 nM.

Regarding `COc1cc(C(F)F)ncc1NC(=O)N(c1ccccc1C(C)C)[C@H]1CC[C@H](C(=O)O)CC1` [Example 294, (1r,4r)-4-(3-(6-(difluoromethyl)-4-methoxypyridin-3-yl)-1-(2-isopropylphenyl)ureido)cyclohexane-1-carboxylic acid], the IC50 under setting [1] lay in the range of 100 to 1000 nM. Consider `Cc1ccc(NC(=O)N(c2ccccc2C(C)C)[C@H]2CC[C@@H](C(F)F)CC2)c(OC(F)F)n1` [Example 245, 3-(2-(difluoromethoxy)-6-methylpyridin-3-yl)-1-((1s,4s)-4-(difluoromethyl)cyclohexyl)-1-(2-isopropylphenyl)urea], for which, under setting [1], the concentration for half-maximal inhibition (IC50) was above 1000 nM.

With `Cc1ccc(NC(=O)N(c2ccccc2C(C)C)C2CCOCC2)c(OC(F)F)n1` [Example 18, 3-(2-(difluoromethoxy)-6-methylpyridin-3-yl)-1-(2-isopropylphenyl)-1-(tetrahydro-2H-pyran-4-yl)urea], the IC50 under setting [1] lay in the range of 10 to 100 nM. Regarding `CNC(=O)N1CCC(N(C(=O)Nc2ccc(OC)nc2OC(F)F)c2ccccc2C(C)C)CC1` [Example 64, 4-(3-(2-(difluoromethoxy)-6-methoxypyridin-3-yl)-1-(2-isopropylphenyl)ureido)-N-methylpiperidine-1-carboxamide], where the note is “LPAR1 IC50”, the IC50 fell in the range of 10 to 100 nM. As for `Cc1ccc(NC(=O)N(c2ccccc2C(C)C)C2CC(C=O)C2)c(OC(F)F)n1` (stereo not shown) [Example 194, 3-(2-(difluoromethoxy)-6-methylpyridin-3-yl)-1-(3-formylcyclobutyl)-1-(2-isopropylphenyl)urea], the half-inhibitory concentration (IC50) under setting [1] fell in the range of 100 to 1000 nM. Turning to `CC(=O)N1CCC(N(C(=O)Nc2cc(F)c(Br)nc2OC(F)F)c2ccccc2C(C)C)CC1` [Example 217], the 50% inhibitory concentration (IC50) (LPAR1 IC50) was 10 to 100 nM.

For `Cc1ccc(NC(=O)N(c2ccccc2C(C)C)[C@H]2CC[C@H](C(=O)O)C2)c(OC(F)F)n1` [Example 304], the half-inhibitory concentration (IC50) under setting [1] is below 10 nM.

As to `Cc1ccc(NC(=O)N(c2ccccc2C(C)C)[C@H]2C[C@H](CC#N)C2)c(OC(F)F)n1` [Example 27, 1-((1r,3r)-3-(cyanomethyl)cyclobutyl)-3-(2-(difluoromethoxy)-6-methylpyridin-3-yl)-1-(2-isopropylphenyl)urea], the IC50 under setting [1] was in the range of 100 to 1000 nM.

In the case of `C#CCCS(=O)(=O)NC(=O)[C@H]1CC[C@H](N(C(=O)Nc2ccc(OC)nc2OC(F)F)c2ccccc2C(C)C)CC1` [Example 280], the 50% inhibitory concentration (IC50) under setting [1] is below 10 nM.

Turning to `CCOc1nc(C)ccc1NC(=O)N(c1ccccc1C(C)C)C1CCN(C(C)=O)CC1` [Example 105], the concentration for half-maximal inhibition (IC50) (LPAR1 IC50) is 100 to 1000 nM.

`Cc1ccc(NC(=O)N(c2ccccc2C(C)C)[C@H]2CCC[C@@H](C(=O)O)C2)c(OC(F)F)n1` [Example 285]: the IC50 under setting [1] was below 10 nM. Turning to `Cc1ccc(NC(=O)N(c2ccccc2C(C)C)[C@H]2CCOC2)c(OC(F)F)n1` [Example 17, (S)-3-(2-(difluoromethoxy)-6-methylpyridin-3-yl)-1-(2-isopropylphenyl)-1-(tetrahydrofuran-3-yl)urea], the half-maximal inhibitory concentration (IC50) under setting [1] lay in the range of 10 to 100 nM. In the case of `Cc1ccc(NC(=O)N(c2ccccc2C(C)C)[C@H]2CC[C@@H](C(C)(C)O)CC2)c(OC(F)F)n1` [Example 238, 3-(2-(difluoromethoxy)-6-methylpyridin-3-yl)-1-((1s,4s)-4-(2-hydroxypropan-2-yl)cyclohexyl)-1-(2-isopropylphenyl)urea], the half-maximal inhibitory concentration (IC50) under setting [1] lay within 100 to 1000 nM. Same read-out and setting: for `COc1ccc(NC(=O)N(c2ccccc2C(C)C)[C@H]2C[C@@](O)(C(F)(F)C(=O)O)C2)c(OC(F)F)n1` [Example 323] the value was below 10 nM.
